We go through 20 compounds from PubChem BioAssay (NCI).

Some test systems named below: ACHN renal; COLO 205 colon; HCT-116 colon; HT29 colon; MCF7 breast; MDA-N; NCI-H226 lung; RPMI-8226 leukemia; SK-MEL-28 melanoma; SK-OV-3 ovarian; SNB-19 CNS.
What all share (assay): inhibition of tumour cell growth, NCI panel, 48 h

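Tested at 5 concentrations; 48 h exposure; 96-well plates; endpoints linearly interpolated, else capped at highest concentration. TGI is the concentration that stops growth completely.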 *1 amine or outer side, *2 acyl side, *3 side chain or, on linkers, in order; H or OH if unused. Where a SMILES comes first, the peptide text is derived from it. Bridges are numbered along the chain shown (N, C = ends). Roman numbers before positions name the chains, in order. [ ]: non-standard residue; d: D form. Actinocin(9to1) = Cc1c2oc3c(C)ccc(C(=O)[*:1])c3nc-2c(C(=O)[*:2])c(N)c1=O; NMeV = CN[CH](C(=O)O)C(C)C; Sar = CNCC(=O)O

For `Cc1cn(CC2=NCC(C)(C)N2)c(=O)[nH]c1=O`, the TGI in the test on ACHN renal, in the test with COLO 205 colon, with HCT-116 colon, in the test with HT29 colon, in the test on MCF7 breast and in the test on MDA-N was more than 100 µM throughout. For the same compound, the TGI in the test with NCI-H226 lung, in the test on RPMI-8226 leukemia, with SK-MEL-28 melanoma, in the test on SK-OV-3 ovarian and with SNB-19 CNS was more than 100 µM in each case.
For `CN(C)Cc1cc(O)c(O)c(CN(C)C)c1`, the TGI with ACHN renal, in the test with COLO 205 colon, with HCT-116 colon, with HT29 colon, in the test on MCF7 breast and in the test with MDA-N was more than 100 µM each time. The TGI with NCI-H226 lung, in the test on RPMI-8226 leukemia, in the test with SK-MEL-28 melanoma, with SK-OV-3 ovarian and with SNB-19 CNS was more than 100 µM throughout.
Consider `CCCCCCCCCCCCCCCCCCNc1ccn(C2OC(COP(=O)(O)OCC3OC(n4cc(C)c(=O)[nH]c4=O)CC3N=[N+]=[N-])C(O)C2O)c(=O)n1` (stereo not given), for which the TGI with ACHN renal is more than 100 µM; in the test on COLO 205 colon, 30.7 µM; in the test with HCT-116 colon it was more than 100 µM; with HT29 colon it was 35.1 µM; with MCF7 breast, more than 100 µM; in the test on MDA-N it was more than 100 µM. Also, the TGI was 43.7 µM in the test on NCI-H226 lung; 32.7 µM with RPMI-8226 leukemia; 36.8 µM in the test on SK-MEL-28 melanoma; 40.3 µM in the test with SK-OV-3 ovarian; 59.7 µM with SNB-19 CNS.
For `Fc1ccc(N=NN2CCCC2)cc1`, the TGI in the test with ACHN renal, in the test with COLO 205 colon, in the test on HCT-116 colon, in the test on HT29 colon, with MCF7 breast and in the test with MDA-N was more than 100 µM in each case. Also, the TGI in the test with NCI-H226 lung, in the test with RPMI-8226 leukemia, in the test on SK-MEL-28 melanoma, in the test on SK-OV-3 ovarian and in the test on SNB-19 CNS was more than 100 µM throughout.
As to `Cc1nc2ccc(S(=O)(=O)O)cc2c(=O)n1-c1ccc(C(=O)NN2C(=O)C(Cl)C2c2ccccc2O)cc1` (stereo not given), the TGI in the test with ACHN renal, in the test with COLO 205 colon, with HCT-116 colon, in the test with HT29 colon, in the test on MCF7 breast and in the test with MDA-N was more than 100 µM throughout. Moreover, the TGI with NCI-H226 lung, in the test with RPMI-8226 leukemia, in the test on SK-MEL-28 melanoma, with SK-OV-3 ovarian and in the test on SNB-19 CNS was more than 100 µM in each case.
Turning to `O=C(OCc1ccccc1)C1(N2CN(C3(C(=O)OCc4ccccc4)CCCC3)CN(C3(C(=O)OCc4ccccc4)CCCC3)C2)CCCC1`, the TGI with ACHN renal, in the test on COLO 205 colon, in the test on HCT-116 colon, in the test on HT29 colon, with MCF7 breast and with MDA-N was more than 10 µM in each case. Further, the TGI in the test on NCI-H226 lung, in the test with RPMI-8226 leukemia, in the test on SK-MEL-28 melanoma, in the test with SK-OV-3 ovarian and in the test on SNB-19 CNS was more than 10 µM throughout.
In the case of `[N-]=[N+]=NCc1cccc(Nc2cc(=O)[nH]c(=O)[nH]2)c1`, the TGI in the test on ACHN renal, in the test on COLO 205 colon, with HCT-116 colon, in the test with HT29 colon, in the test on MCF7 breast and with MDA-N was more than 100 µM in each case. Further, the TGI in the test with NCI-H226 lung, in the test on RPMI-8226 leukemia, with SK-MEL-28 melanoma, with SK-OV-3 ovarian and in the test with SNB-19 CNS was more than 100 µM each time.
`Cc1[nH]c2ccccc2c1C=Nc1ccc(N=Cc2c(C)[nH]c3ccccc23)cc1`: the TGI in the test on ACHN renal is more than 100 µM; with COLO 205 colon, 27.3 µM; in the test on HCT-116 colon, 38.2 µM; with HT29 colon it was more than 100 µM; with MCF7 breast, 30.1 µM; with MDA-N it was more than 100 µM. In addition, the TGI is more than 100 µM in the test on NCI-H226 lung; 45.3 µM with RPMI-8226 leukemia; more than 100 µM in the test on SK-MEL-28 melanoma; more than 100 µM in the test on SK-OV-3 ovarian; more than 100 µM with SNB-19 CNS.
Turning to `COc1ccc2c(c1)N=C1CSC(c3ccccc3Cl)N1C2` (stereo not given), the TGI in the test on ACHN renal stood at 41.8 µM; in the test on COLO 205 colon, 42.4 µM; with HCT-116 colon, 18.8 µM; in the test with HT29 colon, 19.6 µM; in the test on MCF7 breast, 53.5 µM; in the test with MDA-N, 26.8 µM. Besides, the TGI in the test on NCI-H226 lung is 50.5 µM; in the test with RPMI-8226 leukemia it was 35.3 µM; with SK-MEL-28 melanoma, 40.8 µM; in the test with SK-OV-3 ovarian it was 47.5 µM; in the test with SNB-19 CNS it was more than 100 µM.
For `CC(C)c1ccc(/C=C2\CSCC3=C2NC(=S)NC3c2ccc(C(C)C)cc2)cc1` (stereo not given), the TGI in the test on ACHN renal, with COLO 205 colon, in the test on HCT-116 colon, with HT29 colon, in the test with MCF7 breast and in the test with MDA-N was more than 100 µM each time. Also, the TGI in the test with NCI-H226 lung, with RPMI-8226 leukemia, in the test on SK-MEL-28 melanoma, with SK-OV-3 ovarian and in the test with SNB-19 CNS was more than 100 µM throughout.
As for `NC(=O)c1ccc2c(c1)S(=O)(=O)c1ccccc1C2=O`, the TGI with ACHN renal, in the test with COLO 205 colon, in the test on HCT-116 colon, with HT29 colon, in the test on MCF7 breast and in the test with MDA-N was more than 100 µM each time. In addition, the TGI in the test with NCI-H226 lung, with RPMI-8226 leukemia, in the test on SK-MEL-28 melanoma, in the test with SK-OV-3 ovarian and in the test with SNB-19 CNS was more than 100 µM in each case.
Regarding `Cc1c2oc3c(C)ccc(C(=O)NC4C(=O)NC(C(C)O)C(=O)N5CCCC5C(=O)N(C)CC(=O)N(C)C(C(C)C)C(=O)OC4C)c3nc-2c(C(=O)NC2C(=O)NC(C(C)O)C(=O)N3CCCC3C(=O)N(C)CC(=O)N(C)C(C(C)C)C(=O)OC2C)c(N)c1=O` (stereo not given) (I: TTP[Sar][NMeV] / II: TTP[Sar][NMeV]; ester I:1-I:C, II:1-II:C; linker I:N-II:N via Actinocin(9to1); configuration not given here), the TGI in the test with ACHN renal was 10.9 µM; in the test with COLO 205 colon, 0.762 µM; in the test on HCT-116 colon, more than 100 µM; with HT29 colon, 4.19 µM; in the test on MCF7 breast it was 1.06 µM; in the test with MDA-N, 11.8 µM. Further, the TGI with NCI-H226 lung was 0.803 µM; in the test with RPMI-8226 leukemia, 1.55 µM; in the test on SK-MEL-28 melanoma it was 2.75 µM; in the test on SK-OV-3 ovarian, more than 100 µM; in the test on SNB-19 CNS, more than 100 µM.
Regarding `CN(C)CCNC(=O)c1cccc2nc3c(nc12)-c1ccccc1C3=O`, the TGI was determined as 32.1 µM with ACHN renal; 58.5 µM in the test with COLO 205 colon; 88.3 µM in the test with HCT-116 colon; 22.8 µM with HT29 colon; 24.3 µM with MCF7 breast; 25.7 µM in the test with MDA-N. Further, the TGI in the test with NCI-H226 lung is 39.6 µM; with RPMI-8226 leukemia, 33.6 µM; in the test with SK-MEL-28 melanoma, 37.3 µM; in the test with SK-OV-3 ovarian, 97 µM; with SNB-19 CNS, 47.6 µM.
For the compound `CCOC(=O)/C=C(/C(=O)OCC)n1cc(C)c(=O)n(Cc2cn(COCCOC(C)=O)nn2)c1=O`, the TGI was 21.6 µM in the test on ACHN renal; more than 55.2 µM with COLO 205 colon; more than 53.3 µM with HCT-116 colon; 30.7 µM in the test with HT29 colon; 43.5 µM with MCF7 breast; more than 85.4 µM in the test on MDA-N. Further, the TGI is more than 54 µM in the test with NCI-H226 lung; 57.7 µM in the test on RPMI-8226 leukemia; 57.1 µM in the test with SK-MEL-28 melanoma; more than 100 µM with SK-OV-3 ovarian; more than 92.5 µM with SNB-19 CNS.
For the compound `CC(C)(C)C1(COC(=O)c2ccc(N)cc2)COC1`, the TGI in the test on ACHN renal, in the test on COLO 205 colon, with HCT-116 colon, in the test on HT29 colon, in the test on MCF7 breast and in the test with MDA-N was more than 100 µM each time. Also, the TGI in the test on NCI-H226 lung, in the test with RPMI-8226 leukemia, in the test with SK-MEL-28 melanoma, in the test with SK-OV-3 ovarian and in the test with SNB-19 CNS was more than 100 µM in each case.
With `O=C1C=C(Br)c2c(Br)sc(Br)c21`, the TGI in the test on ACHN renal was 15.3 µM; with COLO 205 colon, 15.9 µM; in the test with HCT-116 colon, 30.4 µM; in the test with HT29 colon, 44.5 µM; in the test on MCF7 breast, 17.4 µM; in the test on MDA-N it was more than 52 µM. Further, the TGI was 98.8 µM with NCI-H226 lung; more than 100 µM in the test with RPMI-8226 leukemia; more than 56.2 µM in the test with SK-MEL-28 melanoma; 64.3 µM in the test with SK-OV-3 ovarian; 35.7 µM in the test on SNB-19 CNS.
Turning to `[N-]=[N+]=CC(=O)OCC1SCCCS1`, the TGI in the test with ACHN renal, in the test on COLO 205 colon, in the test on HCT-116 colon, with HT29 colon, with MCF7 breast and in the test on MDA-N was more than 100 µM in each case. For the same compound, the TGI in the test with NCI-H226 lung, in the test with RPMI-8226 leukemia, in the test on SK-MEL-28 melanoma, in the test on SK-OV-3 ovarian and in the test on SNB-19 CNS was more than 100 µM each time.
As to `COP(=O)(OC)C(Cc1c[nH]c2ccccc12)NC(=O)OCc1ccccc1` (stereo not given), the TGI with ACHN renal, in the test on COLO 205 colon, in the test on HCT-116 colon, in the test on HT29 colon, in the test with MCF7 breast and in the test with MDA-N was more than 100 µM throughout. Moreover, the TGI with NCI-H226 lung, with RPMI-8226 leukemia, in the test on SK-MEL-28 melanoma, with SK-OV-3 ovarian and in the test on SNB-19 CNS was more than 100 µM each time.
With `Cc1sc(/N=C/c2c[nH]c3ccccc23)c(C#N)c1C`, the TGI with ACHN renal, in the test with COLO 205 colon, with HCT-116 colon, in the test with HT29 colon, with MCF7 breast and with MDA-N was more than 100 µM throughout. The TGI with NCI-H226 lung, in the test on RPMI-8226 leukemia, with SK-MEL-28 melanoma, in the test with SK-OV-3 ovarian and in the test with SNB-19 CNS was more than 100 µM in each case.
Turning to `C=CCSC1=N/C(=C\c2ccccc2)C(=O)N1CC=C`, the TGI was more than 100 µM with ACHN renal; more than 100 µM in the test on COLO 205 colon; more than 100 µM with HCT-116 colon; more than 66.8 µM in the test with HT29 colon; more than 100 µM in the test on MCF7 breast; more than 100 µM with MDA-N. Further, the TGI in the test with NCI-H226 lung is more than 100 µM; in the test on RPMI-8226 leukemia it was more than 62.3 µM; in the test on SK-MEL-28 melanoma it was more than 100 µM; in the test with SK-OV-3 ovarian, more than 100 µM; in the test with SNB-19 CNS, more than 100 µM.
